Measurements reported in ChEMBL document CHEMBL5104090, “Recent advances in the medicinal chemistry of carbonic anhydrase inhibitors” (Eur J Med Chem, 2021).

Key:
Ca9-22 = test: cells; type: functional; conditions: Homo sapiens, time 48 hrs
Description: Cytotoxicity against human Ca9-22 cells assessed as cell growth inhibition measured after 48 hrs by MTT assay

Carbonic anhydrase 1 [1] = biological target: T1, Carbonic anhydrase 1 (Homo sapiens, UniProt P00915)
Carbonic anhydrase 9 [2] = biological target: T2, Carbonic anhydrase 9 (Homo sapiens, UniProt Q16790)
Carbonic anhydrase 12 = Carbonic anhydrase 12 (Homo sapiens, UniProt O43570)
Carbonic anhydrase 12, sequence (O43570 whole entry): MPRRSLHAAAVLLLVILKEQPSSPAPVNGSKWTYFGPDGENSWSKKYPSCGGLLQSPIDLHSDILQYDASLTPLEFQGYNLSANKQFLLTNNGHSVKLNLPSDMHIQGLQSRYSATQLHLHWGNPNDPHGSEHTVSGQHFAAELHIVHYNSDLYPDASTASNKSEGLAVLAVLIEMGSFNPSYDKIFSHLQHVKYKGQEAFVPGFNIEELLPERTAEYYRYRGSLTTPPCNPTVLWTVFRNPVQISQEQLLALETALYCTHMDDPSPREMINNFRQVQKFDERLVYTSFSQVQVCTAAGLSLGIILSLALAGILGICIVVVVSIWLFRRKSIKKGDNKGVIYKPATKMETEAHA

Carbonic anhydrase 1 [3] = biological target: T1, Carbonic anhydrase 1; remark: listed apart in the source
Carbonic anhydrase 2 = Carbonic anhydrase 2 (Homo sapiens, UniProt P00918)
Carbonic anhydrase 9 [4] = biological target: T2, Carbonic anhydrase 9; remark: listed apart in the source

T1 sequence (P00915 whole entry): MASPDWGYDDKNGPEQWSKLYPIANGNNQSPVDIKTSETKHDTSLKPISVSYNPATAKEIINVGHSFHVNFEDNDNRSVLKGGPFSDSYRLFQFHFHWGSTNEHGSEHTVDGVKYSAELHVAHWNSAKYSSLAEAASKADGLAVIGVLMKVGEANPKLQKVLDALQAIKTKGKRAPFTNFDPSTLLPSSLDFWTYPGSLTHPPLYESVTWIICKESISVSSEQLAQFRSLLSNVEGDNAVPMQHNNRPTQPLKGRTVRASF

## COc1cc(C2CC(c3ccc(Cl)cc3)=NN2c2ccc(S(N)(=O)=O)cc2)cc(OC)c1OC (stereo not drawn)
Ca9-22
  CC50: 6300 nM
Carbonic anhydrase 1 [1]
  Ki: > 230 nM
Carbonic anhydrase 9 [2]
  Ki: > 44 nM
Carbonic anhydrase 12
  Ki: > 9 nM

## C/C(=N\O)c1ccc(N2C(=O)c3c(Cl)c(Cl)c(Cl)c(Cl)c3C2=O)cc1
Carbonic anhydrase 9 [2]
  Ki: 169 nM

## O=S1(=O)CC=Cc2cccc(-c3ccc(F)cc3)c2O1
Carbonic anhydrase 1 [3]
  Ki: > 100000 nM
Carbonic anhydrase 2
  Ki: > 100000 nM

## NS(=O)(=O)c1ccc(/N=C2\C(=O)N(Cc3ccccc3)c3ccccc32)cc1
Carbonic anhydrase 9 [2]
  Ki: 13.9 nM
Carbonic anhydrase 12
  Ki: 34.3 nM

## O=S1(=O)CC=Cc2ccc(-c3ccc(F)cc3)cc2O1
Carbonic anhydrase 1 [3]
  Ki: > 100000 nM
Carbonic anhydrase 2
  Ki: > 100000 nM

## COc1ccc(C2CC(c3ccc(F)cc3)=NN2c2ccc(S(N)(=O)=O)cc2)c(OC)c1OC (stereo not drawn)
Ca9-22
  CC50: 6300 nM
Carbonic anhydrase 1 [1]
  Ki: > 230 nM
Carbonic anhydrase 9 [2]
  Ki: > 44 nM
Carbonic anhydrase 12
  Ki: > 9 nM

## Cc1ccc(-c2cc(C(F)(F)F)nn2-c2ccc(S(N)(=O)=O)cc2)cc1 [CELECOXIB]
Carbonic anhydrase 9 [2]
  Ki: 14.8 nM

## C/C(=N\O)c1ccc(N2C(=O)c3ccc(C(C)(C)C)cc3C2=O)cc1
Carbonic anhydrase 9 [2]
  Ki: 169 nM

## CCOC(=O)c1ccc(-c2ccc3c(c2)C=CCS(=O)(=O)O3)cc1
Carbonic anhydrase 1 [3]
  Ki: > 100000 nM
Carbonic anhydrase 2
  Ki: > 100000 nM

## O=S1(=O)CC=Cc2cc(-c3ccc(C(F)(F)F)cc3)ccc2O1
Carbonic anhydrase 1 [3]
  Ki: > 100000 nM
Carbonic anhydrase 2
  Ki: > 100000 nM

## C/C(=N\NC(=O)c1ccc(S(N)(=O)=O)cc1)c1ccc(N2C(=O)c3ccc(C(=O)O)cc3C2=O)cc1
Carbonic anhydrase 9 [2]
  Ki: 17.3 nM

## COc1ccc2nc(S/C(=N/Nc3ccc(S(N)(=O)=O)cc3)C(C)=O)n(-c3ccccc3)c(=O)c2c1
Carbonic anhydrase 9 [2]
  Ki: 1.6 nM

## COc1cc(OC)c(C2CC(c3cccs3)=NN2c2ccc(S(N)(=O)=O)cc2)cc1OC (stereo not drawn)
Ca9-22
  CC50: 6300 nM
Carbonic anhydrase 1 [1]
  Ki: > 230 nM
Carbonic anhydrase 9 [2]
  Ki: > 44 nM
Carbonic anhydrase 12
  Ki: > 9 nM

## COc1cc(OC)c(C2CC(c3ccc(Br)cc3)=NN2c2ccc(S(N)(=O)=O)cc2)cc1OC (stereo not drawn)
Ca9-22
  CC50: 6300 nM
Carbonic anhydrase 1 [1]
  Ki: > 230 nM
Carbonic anhydrase 9 [2]
  Ki: > 44 nM
Carbonic anhydrase 12
  Ki: > 9 nM

## COc1ccc(C2CC(c3ccc(Br)cc3)=NN2c2ccc(S(N)(=O)=O)cc2)c(OC)c1OC (stereo not drawn)
Ca9-22
  CC50: 6300 nM
Carbonic anhydrase 1 [1]
  Ki: > 230 nM
Carbonic anhydrase 9 [2]
  Ki: > 44 nM
Carbonic anhydrase 12
  Ki: > 9 nM

## O=S1(=O)CC=Cc2cc(-c3ccc(F)cc3)ccc2O1
Carbonic anhydrase 1 [3]
  Ki: > 100000 nM
Carbonic anhydrase 2
  Ki: > 100000 nM

## COc1ccc(C2CC(c3cccs3)=NN2c2ccc(S(N)(=O)=O)cc2)c(OC)c1OC (stereo not drawn)
Ca9-22
  CC50: 6300 nM
Carbonic anhydrase 1 [1]
  Ki: > 230 nM
Carbonic anhydrase 9 [2]
  Ki: > 44 nM
Carbonic anhydrase 12
  Ki: > 9 nM

## C/C(=N\O)c1ccc(N2C(=O)C3C(C2=O)C2(Cl)C(Cl)=C(Cl)C3(Cl)C2(Cl)Cl)cc1 (stereo not drawn)
Carbonic anhydrase 9 [2]
  Ki: 169 nM

## O=S1(=O)CC=Cc2ccc(-c3ccc(C(F)(F)F)cc3)cc2O1
Carbonic anhydrase 1 [3]
  Ki: > 100000 nM
Carbonic anhydrase 2
  Ki: > 100000 nM

## C/C(=N\O)c1ccc(N2C(=O)c3ccc(C)cc3C2=O)cc1
Carbonic anhydrase 9 [2]
  Ki: 169 nM

## C/C(=N\O)c1ccc(N2C(=O)c3ccccc3C2=O)cc1
Carbonic anhydrase 9 [2]
  Ki: 169 nM

## CN1C(=O)/C(=N\c2ccc(S(N)(=O)=O)cc2)c2ccccc21
Carbonic anhydrase 9 [2]
  Ki: 13.9 nM
Carbonic anhydrase 12
  Ki: 34.3 nM

## COc1ccc(C2CC(c3ccc(Cl)cc3)=NN2c2ccc(S(N)(=O)=O)cc2)c(OC)c1OC (stereo not drawn)
Ca9-22
  CC50: 6300 nM
Carbonic anhydrase 1 [1]
  Ki: > 230 nM
Carbonic anhydrase 9 [2]
  Ki: > 44 nM
Carbonic anhydrase 12
  Ki: > 9 nM

## NS(=O)(=O)c1ccc(CCn2c(SCc3ccc(F)cc3)nc3ccccc3c2=O)cc1
Carbonic anhydrase 9 [4]
  Ki: 19.3 nM

## C/C(=N\NC(=O)c1ccc(S(N)(=O)=O)cc1)c1ccc(N2C(=O)c3ccc(C(C)(C)C)cc3C2=O)cc1
Carbonic anhydrase 9 [2]
  Ki: 83.8 nM

## COc1cc(C2CC(c3ccc(Br)cc3)=NN2c2ccc(S(N)(=O)=O)cc2)cc(OC)c1OC (stereo not drawn)
Ca9-22
  CC50: 6300 nM
Carbonic anhydrase 1 [1]
  Ki: > 230 nM
Carbonic anhydrase 9 [2]
  Ki: > 44 nM
Carbonic anhydrase 12
  Ki: > 9 nM

## C/C(=N\O)c1ccc(N2C(=O)c3cc(Cl)c(Cl)cc3C2=O)cc1
Carbonic anhydrase 9 [2]
  Ki: 169 nM

## COc1ccc(C2CC(c3ccccc3)=NN2c2ccc(S(N)(=O)=O)cc2)c(OC)c1OC (stereo not drawn)
Ca9-22
  CC50: 6300 nM
Carbonic anhydrase 1 [1]
  Ki: > 230 nM
Carbonic anhydrase 9 [2]
  Ki: > 44 nM
Carbonic anhydrase 12
  Ki: > 9 nM

## NS(=O)(=O)c1ccc(N/N=C2\C(=O)N(Cc3ccccc3)c3ccccc32)cc1
Carbonic anhydrase 9 [2]
  Ki: 13.9 nM

## NS(=O)(=O)c1ccc(NCC(=O)N/N=C2\C(=O)Nc3ccccc32)cc1
Carbonic anhydrase 12
  Ki: 34.3 nM

## CN1C(=O)/C(=N\NC(=O)CNc2ccc(S(N)(=O)=O)cc2)c2ccccc21
Carbonic anhydrase 9 [2]
  Ki: 13.9 nM
Carbonic anhydrase 12
  Ki: 34.3 nM

## NS(=O)(=O)c1ccc(N/C=C/C(=O)c2ccccc2)cc1
Carbonic anhydrase 9 [4]
  Ki: 0.21 nM

## C/C(=N\NC(=O)c1ccc(S(N)(=O)=O)cc1)c1ccc(N2C(=O)c3ccccc3C2=O)cc1
Carbonic anhydrase 9 [2]
  Ki: 17.3 nM

## COc1cc(OC)c(C2CC(c3ccccc3)=NN2c2ccc(S(N)(=O)=O)cc2)cc1OC (stereo not drawn)
Ca9-22
  CC50: 6300 nM
Carbonic anhydrase 1 [1]
  Ki: > 230 nM
Carbonic anhydrase 9 [2]
  Ki: > 44 nM
Carbonic anhydrase 12
  Ki: > 9 nM

## CN1C(=O)/C(=N\Nc2ccc(S(N)(=O)=O)cc2)c2ccccc21
Carbonic anhydrase 9 [2]
  Ki: 13.9 nM

## C=CCN1C(=O)/C(=N\NC(=O)CNc2ccc(S(N)(=O)=O)cc2)c2ccccc21
Carbonic anhydrase 9 [2]
  Ki: 13.9 nM
Carbonic anhydrase 12
  Ki: 34.3 nM

## NS(=O)(=O)c1ccc(CCNC(=O)CSc2nc3ccc(I)cc3c(=O)n2Cc2ccccc2)cc1
Carbonic anhydrase 12
  Ki: 5.2 nM

## C/C(=N\O)c1ccc(N2C(=O)c3ccc(C(=O)O)cc3C2=O)cc1
Carbonic anhydrase 9 [2]
  Ki: 169 nM

## C/C(=N\NC(=O)c1ccc(S(N)(=O)=O)cc1)c1ccc(N2C(=O)C3CC=CCC3C2=O)cc1 (stereo not drawn)
Carbonic anhydrase 9 [2]
  Ki: 17.3 nM

## C/C(=N\O)c1ccc(N2C(=O)C3CC=CCC3C2=O)cc1 (stereo not drawn)
Carbonic anhydrase 9 [2]
  Ki: 169 nM

## NS(=O)(=O)c1ccc(NCC(=O)N/N=C2\C(=O)N(C(=O)c3ccccc3)c3ccccc32)cc1
Carbonic anhydrase 9 [2]
  Ki: 65.3 nM

## Cc1ccc(C(=O)/C=C/Nc2ccc(S(N)(=O)=O)cc2)cc1
Carbonic anhydrase 9 [4]
  Ki: 0.21 nM

## COc1cc(C2CC(c3ccc(C(F)(F)F)cc3)=NN2c2ccc(S(N)(=O)=O)cc2)cc(OC)c1OC (stereo not drawn)
Ca9-22
  CC50: 6300 nM
Carbonic anhydrase 1 [1]
  Ki: > 230 nM
Carbonic anhydrase 9 [2]
  Ki: > 44 nM
Carbonic anhydrase 12
  Ki: > 9 nM

## CC(C)(C)OC(=O)C[C@H](Cc1ccccc1)C(=O)CCC(=O)NCc1ccc(S(N)(=O)=O)cc1
Carbonic anhydrase 9 [2]
  Ki: 1.8 nM

## COc1cc(OC)c(C2CC(c3ccc(C(F)(F)F)cc3)=NN2c2ccc(S(N)(=O)=O)cc2)cc1OC (stereo not drawn)
Ca9-22
  CC50: 6300 nM
Carbonic anhydrase 1 [1]
  Ki: > 230 nM
Carbonic anhydrase 9 [2]
  Ki: > 44 nM
Carbonic anhydrase 12
  Ki: > 9 nM

## CCN1C(=O)/C(=N\Nc2ccc(S(N)(=O)=O)cc2)c2ccccc21
Carbonic anhydrase 9 [2]
  Ki: 23.6 nM

## C/C(=N\NC(=O)c1ccc(S(N)(=O)=O)cc1)c1ccc(N2C(=O)c3c(Br)c(Br)c(Br)c(Br)c3C2=O)cc1
Carbonic anhydrase 9 [2]
  Ki: 17.3 nM

## C/C(=N\NC(=O)c1ccc(S(N)(=O)=O)cc1)c1ccc(N2C(=O)c3cc(Cl)c(Cl)cc3C2=O)cc1
Carbonic anhydrase 9 [2]
  Ki: 169 nM

## CC(C)[C@@H](CC(=O)[C@@H](C)CC(=O)OCc1ccccc1)C(=O)NCc1ccc(S(N)(=O)=O)cc1
Carbonic anhydrase 12
  Ki: 7.4 nM

## COc1ccc(C2CC(c3ccc(C(F)(F)F)cc3)=NN2c2ccc(S(N)(=O)=O)cc2)c(OC)c1OC (stereo not drawn)
Ca9-22
  CC50: 6300 nM
Carbonic anhydrase 1 [1]
  Ki: > 230 nM
Carbonic anhydrase 9 [2]
  Ki: > 44 nM
Carbonic anhydrase 12
  Ki: > 9 nM

## COc1cc(OC)c(C2CC(c3ccc(F)cc3)=NN2c2ccc(S(N)(=O)=O)cc2)cc1OC (stereo not drawn)
Ca9-22
  CC50: 6300 nM
Carbonic anhydrase 1 [1]
  Ki: > 230 nM
Carbonic anhydrase 9 [2]
  Ki: > 44 nM
Carbonic anhydrase 12
  Ki: > 9 nM

## C/C(=N\NC(=O)c1ccc(S(N)(=O)=O)cc1)c1ccc(N2C(=O)C3C(C2=O)C2(Cl)C(Cl)=C(Cl)C3(Cl)C2(Cl)Cl)cc1 (stereo not drawn)
Carbonic anhydrase 9 [2]
  Ki: 17.3 nM

## COc1cc(C2CC(c3ccccc3)=NN2c2ccc(S(N)(=O)=O)cc2)cc(OC)c1OC (stereo not drawn)
Ca9-22
  CC50: 6300 nM
Carbonic anhydrase 1 [1]
  Ki: > 230 nM
Carbonic anhydrase 9 [2]
  Ki: > 44 nM
Carbonic anhydrase 12
  Ki: > 9 nM

## COc1cc(OC)c(C2CC(c3ccc(Cl)cc3)=NN2c2ccc(S(N)(=O)=O)cc2)cc1OC (stereo not drawn)
Ca9-22
  CC50: 6300 nM
Carbonic anhydrase 1 [1]
  Ki: > 230 nM
Carbonic anhydrase 9 [2]
  Ki: > 44 nM
Carbonic anhydrase 12
  Ki: > 9 nM

## NS(=O)(=O)c1cccc(-c2nc(-c3cccnc3)no2)c1
Carbonic anhydrase 9 [2]
  Ki: 1.2 nM

## O=S1(=O)C=Cc2cc(-n3nncc3-c3ccc(F)cc3)ccc2O1
Carbonic anhydrase 9 [2]
  Ki: 6.9 nM

## CCN1C(=O)/C(=N\c2ccc(S(N)(=O)=O)cc2)c2ccccc21
Carbonic anhydrase 9 [2]
  Ki: 13.9 nM
Carbonic anhydrase 12
  Ki: 34.3 nM

## CCN1C(=O)/C(=N\NC(=O)CNc2ccc(S(N)(=O)=O)cc2)c2ccccc21
Carbonic anhydrase 12
  Ki: 34.3 nM

## COc1ccc(C(=O)N2C(=O)/C(=N\NC(=O)CNc3ccc(S(N)(=O)=O)cc3)c3ccccc32)cc1
Carbonic anhydrase 12
  Ki: 22.3 nM

## C/C(=N\NC(=O)c1ccc(S(N)(=O)=O)cc1)c1ccc(N2C(=O)c3ccc(C)cc3C2=O)cc1
Carbonic anhydrase 9 [2]
  Ki: 17.3 nM

## C/C(=N\O)c1ccc(N2C(=O)c3c(Br)c(Br)c(Br)c(Br)c3C2=O)cc1
Carbonic anhydrase 9 [2]
  Ki: 169 nM

## C=CCN1C(=O)/C(=N\c2ccc(S(N)(=O)=O)cc2)c2ccccc21
Carbonic anhydrase 9 [2]
  Ki: 13.9 nM
Carbonic anhydrase 12
  Ki: 34.3 nM

## C=CCN1C(=O)/C(=N\Nc2ccc(S(N)(=O)=O)cc2)c2ccccc21
Carbonic anhydrase 12
  Ki: 34.3 nM
